Experiments:
Format in all cases: cell-based
SW620 (colon cancer) = experiment: MTT antiproliferative assay, SW620; details: Homo sapiens, SW-620, SW620, 10 μM, 48 or 72 h, read-out: inhibition of cell growth, SW620
Procedure, shortened: (§1)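 Growth inhibition is graded in bands of percent inhibition at 10 μM, taken from MTT read-out at 490 nm and normalised to vehicle-treated wells. Exposure runs 48 or 72 h at 37° C.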

[1] = test system: MDA-MB-231 (breast cancer); experiment: MTT antiproliferative assay, MDA-MB-231; details: Homo sapiens, MDA-MB-231, 10 μM, 48 or 72 h, read-out: inhibition of cell growth, MDA-MB-231
Procedure, shortened: as §1

[2] = test system: A375 (malignant melanoma); experiment: MTT antiproliferative assay, A375; details: Homo sapiens, A-375, A375, 10 μM, 48 or 72 h, read-out: inhibition of cell growth, A375
Procedure, shortened: as §1

HepG2 (liver cancer) = experiment: MTT antiproliferative assay, HepG2; details: Homo sapiens, HepG2, 10 μM, 48 or 72 h, read-out: inhibition of cell growth, HepG2
Procedure, shortened: as §1

[3] = test system: A431 (epidermoid carcinoma); experiment: MTT antiproliferative assay, A431; details: Homo sapiens, A-431, A431, 10 μM, 48 or 72 h, read-out: inhibition of cell growth, A431
Procedure, shortened: as §1

HeLa (ovarian cancer) = experiment: MTT antiproliferative assay, HeLa; details: Homo sapiens, 48 or 72 h, read-out: inhibition of cell growth, HELA
Procedure, shortened: as §1

[4] = test system: A549 (lung adenocarcinoma); experiment: MTT antiproliferative assay, A549; details: Homo sapiens, A549, 10 μM, 48 or 72 h, read-out: inhibition of cell growth, A549
Procedure, shortened: as §1

What does the source list for `CO[C@@]1(C)C2=CC=C3[C@@](C)(CC[C@@]4(C)[C@@H]5C[C@](C)(C(=O)O)CC[C@]5(C)CC[C@]34C)C2=CC2(O)OCCN=C21` (stereo partly drawn) [Compound A46, (2R,4aS,6aS,9S,14bR,16aS,16bR)-13a-hydroxy-9-methoxy-2,4a,6a,9,14b,16a-hexamethyl-2,3,4,4a,5,6,6a,9,11,12,13a,14b,15,16,16a,16b-hexadecahydro-1H-piceno[2,3-b][1,4]oxazine-2-carboxylic acid]?
inhibition at 10 µM (SW620 (colon cancer)): 50 to 80%; inhibition at 10 µM [1]: 50 to 80%; inhibition at 10 µM [2]: 30 to 50%; inhibition at 10 µM (HepG2 (liver cancer)): ≥ 80%; inhibition at 10 µM [3]: ≥ 80%; inhibition at 10 µM (HeLa (ovarian cancer)): ≥ 80%; inhibition at 10 µM [4]: 50 to 80%

Which inhibition at 10 µM (SW620 (colon cancer)) does the source give for `CO[C@@]1(C)C2=CC=C3[C@@](C)(CC[C@@]4(C)[C@@H]5C[C@](C)(C(=O)NO)CC[C@]5(C)CC[C@]34C)C2=CC2(O)OCCN=C21` (stereo partly drawn) [Compound A47, (2R,4aS,6aS,9S,14bR,16aS,16bR)—N,13a-dihydroxy-9-methoxy-2,4a,6a,9,14b,16a-hexamethyl-2,3,4,4a,5,6,6a,9,11,12,13a,14b,15,16,16a,16b-hexadecahydro-1H-piceno[2,3-b][1,4]oxazine-2-carboxamide] here?
Its inhibition at 10 µM is 50 to 80%.

And the inhibition at 10 µM [1]?
Its inhibition at 10 µM is at least 80%.

And the inhibition at 10 µM [2]?
The inhibition at 10 µM was 30 to 50%.

And the inhibition at 10 µM (HepG2 (liver cancer))?
The inhibition at 10 µM was at least 80%.

And the inhibition at 10 µM [3]?
The inhibition at 10 µM was at least 80%.

And the inhibition at 10 µM (HeLa (ovarian cancer))?
The inhibition at 10 µM was at least 80%.

What about the inhibition at 10 µM [4] of the same molecule?
The inhibition at 10 µM was at least 80%.

For `CO[C@@]1(C)C2=CC=C3[C@@](C)(CC[C@@]4(C)[C@@H]5C[C@](C)(C(=O)O)CC[C@]5(C)CC[C@]34C)C2=CC(=NO)[C@@H]1O` [Compound A50, (2R,4aS,6aS,9S,10S,12bR,14aS,14bR)-10-hydroxy-11-(hydroxyimino)-9-methoxy-2,4a,6a,9,12b,14a-hexamethyl-1,2,3,4,4a,5,6,6a,9,10,11,12b,13,14,14a,14b-hexadecahydropicene-2-carboxylic acid], which inhibition at 10 µM (SW620 (colon cancer)) is on record?
Its inhibition at 10 µM is under 30%.

What about the inhibition at 10 µM [1] of the same molecule?
Its inhibition at 10 µM is under 30%.

What about the inhibition at 10 µM [2] of the same molecule?
The inhibition at 10 µM was under 30%.

What about the inhibition at 10 µM (HepG2 (liver cancer)) of the same molecule?
Its inhibition at 10 µM is under 30%.

What about the inhibition at 10 µM [3] of the same molecule?
Its inhibition at 10 µM is under 30%.

What about the inhibition at 10 µM (HeLa (ovarian cancer)) of the same molecule?
Its inhibition at 10 µM is under 30%.

And the inhibition at 10 µM [4]?
The inhibition at 10 µM was under 30%.

`CO[C@@]1(C)C2=CC=C3[C@@](C)(CC[C@@]4(C)[C@@H]5C[C@](C)(C(=O)O)CC[C@]5(C)CC[C@]34C)C2=CC(=O)C1=NNC(C)=O` [Compound A51, (2R,4aS,6aS,9S,12bR,14aS,14bR)-10-(acetamidoimino)-9-methoxy-2,4a,6a,9,12b,14a-hexamethyl-11-oxo-1,2,3,4,4a,5,6,6a,9,10,11,12b,13,14,14a,14b-hexadecahydropicene-2-carboxylic acid] was tested. Which inhibition at 10 µM (SW620 (colon cancer)) did it give?
The inhibition at 10 µM was under 30%.

What about the inhibition at 10 µM [1] of the same molecule?
Its inhibition at 10 µM is under 30%.

And the inhibition at 10 µM [2]?
The inhibition at 10 µM was under 30%.

What about the inhibition at 10 µM (HepG2 (liver cancer)) of the same molecule?
The inhibition at 10 µM was under 30%.

What about the inhibition at 10 µM [3] of the same molecule?
Its inhibition at 10 µM is under 30%.

And the inhibition at 10 µM (HeLa (ovarian cancer))?
The inhibition at 10 µM was under 30%.

What about the inhibition at 10 µM [4] of the same molecule?
Its inhibition at 10 µM is under 30%.

With `CO[C@@]1(C)C2=CC=C3[C@@](C)(CC[C@@]4(C)[C@@H]5C[C@](C)(C(=O)O)CC[C@]5(C)CC[C@]34C)C2=CC(=O)C1=NNC(=O)c1ccncc1` [Compound A52, (2R,4aS,6aS,9S,12bR,14aS,14bR)-9-Methoxy-2,4a,6a,9,12b,14a-hexamethyl-11-oxo-10-{[(pyridin-4-yl)formamido]imino}-1,2,3,4,4a,5,6,6a,9,10,11,12b,13,14,14a,14b-hexadecahydropicene-2-carboxylic acid] as the molecule, how does the inhibition at 10 µM (SW620 (colon cancer)) read?
The inhibition at 10 µM was under 30%.

And the inhibition at 10 µM [1]?
The inhibition at 10 µM was under 30%.

And the inhibition at 10 µM [2]?
Its inhibition at 10 µM is under 30%.

What about the inhibition at 10 µM (HepG2 (liver cancer)) of the same molecule?
Its inhibition at 10 µM is under 30%.

And the inhibition at 10 µM [3]?
The inhibition at 10 µM was under 30%.

What about the inhibition at 10 µM (HeLa (ovarian cancer)) of the same molecule?
Its inhibition at 10 µM is under 30%.

What about the inhibition at 10 µM [4] of the same molecule?
Its inhibition at 10 µM is under 30%.

With `CO[C@]1(C)C(=O)C2(C=C3C1=CC=C1[C@@]3(C)CC[C@@]3(C)[C@@H]4C[C@](C)(C(=O)O)CC[C@]4(C)CC[C@]13C)OCCO2` [Compound A54, (4S,6bS,8aS,11R,12aR,12bS,14aR)-4-methoxy-4,6b,8a,11,12b,14a-hexamethyl-3-oxo-4,6b,7,8,8a,9,10,11,12,12a,12b,13,14,14a-tetradecahydro-3H-spiro[picene-2,2′-[1,3]dioxolane]-11-carboxylic acid] as the molecule, how does the inhibition at 10 µM (SW620 (colon cancer)) read?
Its inhibition at 10 µM is under 30%.

And the inhibition at 10 µM [1]?
Its inhibition at 10 µM is under 30%.

What about the inhibition at 10 µM [2] of the same molecule?
The inhibition at 10 µM was under 30%.

And the inhibition at 10 µM (HepG2 (liver cancer))?
The inhibition at 10 µM was under 30%.

What about the inhibition at 10 µM [3] of the same molecule?
Its inhibition at 10 µM is under 30%.

What about the inhibition at 10 µM (HeLa (ovarian cancer)) of the same molecule?
The inhibition at 10 µM was under 30%.

And the inhibition at 10 µM [4]?
The inhibition at 10 µM was under 30%.
